Tested on: NMDA-evoked currents in cultured rat embryonic hippocampal neurons (NMDAr)
Conditions: 500 µM

TKRSSRAFRE [EAR7]
inhibitory action on NMDA-evoked currents (control peptide): No inhibitory action

From publication PMC5433008 (BMC Neuroscience, 2017)
